Reference: patent US5420122A, “3-pyrrolidinylthio-1-azabicyclo-[3.2.0]hept-2-ene-2-carboxylic acid compounds” (Fujisawa Pharmaceutical Co., Ltd., priority 1986, dated 1995)
Converted amounts (≈) assume the structure as drawn.

System: Proteus vulgaris 49
Assay: in vitro antimicrobial activity, two-fold agar-plate dilution method (MIC)
Type: cell-based
Details: heart infusion agar, 37° C., 20 hours, 10^6 viable cells per ml
Method: in vitro Antimicrobial Activity
in vitro Antimicrobial Activity was determined by the two-fold agar-plate dilution method as described below.
One loopful of an overnight culture of each test strain in Trypticase-soy broth (10^6 viable cells per ml) was streaked on heart infusion agar (HI-agar) containing graded concentrations of the test compound, and the minimal inhibitory concentration (MIC) was expressed in terms of ug/ml after incubation at 37° C. for 20 hours.

For C[C@@H](O)[C@H]1C(=O)N2C(C(=O)O)=C(S[C@@H]3CN[C@H](c4nc[nH]n4)C3)[C@H](C)[C@H]12 [Test Compound, (4R,5S,6S )-6-[(1R) -1-Hydroxyethyl]-4-methyl-7-oxo-3-[(2S,4S)-2-(1H-1,2,4-triazol-3-yl)pyrrolidin-4-ylthio]-1-azabicyclo [3.2.0]hept-2-ene-2-carboxylic acid], which MIC is on record?
Its MIC is 0.05 µg/mL (≈ 0.132 µM).
